Experimental data: ChEMBL document CHEMBL3885881, “DrugMatrix”

Species: Rattus norvegicus
Assay: DrugMatrix - Regimen: Daily Repeat
Type: toxicity, organism-based, Sprague-Dawley
Set-up: regimen Daily Repeat, gender Male, age 6-8 weeks
Conditions: in vivo, po, route oral GAVAGE, vehicle .5 % CMC; for ABSOLUTE BASOPHIL / ABSOLUTE EOSINOPHIL / ABSOLUTE LYMPHOCYTE / ABSOLUTE MONOCYTE / ABSOLUTE SEGMENTED NEUTROPHIL / BASOPHIL / EOSINOPHIL / ERYTHROCYTE COUNT / HEMATOCRIT / HEMOGLOBIN / LEUKOCYTE COUNT / LYMPHOCYTE / MEAN CORPUSCULAR HEMOGLOBIN / MEAN CORPUSCULAR HEMOGLOBIN CONCENTRATION / MEAN CORPUSCULAR VOLUME / MONOCYTE / NEUTROPHIL / NUCLEATED RED BLOOD CELLS / PLATELET COUNT: tissue Blood; for ALANINE AMINOTRANSFERASE / ALBUMIN / ALKALINE PHOSPHATASE / ASPARTATE AMINOTRANSFERASE / BLOOD UREA NITROGEN / CARBON DIOXIDE / CHLORIDE / CHOLESTEROL / CREATINE PHOSPHOKINASE / CREATININE / GLUCOSE / LACTATE DEHYDROGENASE / LIPASE / PHOSPHORUS / POTASSIUM / SODIUM / TOTAL BILIRUBIN / TOTAL PROTEIN / URIC ACID: tissue Plasma
[1] = 500 mg/kg, 120 h, dose level Low, time 5 day
[2] = 1500 mg/kg, 72 h, dose level High, time 3 day
[3] = 1500 mg/kg, 120 h, dose level High, time 5 day

Structure (SMILES): CC(C)(Sc1cc(C(C)(C)C)c(O)c(C(C)(C)C)c1)Sc1cc(C(C)(C)C)c(O)c(C(C)(C)C)c1 [PROBUCOL]
- ABSOLUTE BASOPHIL [1]: 0 CELLS/uL
- ABSOLUTE EOSINOPHIL [1]: 211 CELLS/uL
- ABSOLUTE LYMPHOCYTE [1]: 10866.33 CELLS/uL
- ABSOLUTE MONOCYTE [1]: 0 CELLS/uL
- ABSOLUTE SEGMENTED NEUTROPHIL [1]: 1022.67 CELLS/uL
- BASOPHIL [1]: 0%
- EOSINOPHIL [1]: 1.67%
- ERYTHROCYTE COUNT [1]: 5.74 x10E6/uL
- HEMATOCRIT [1]: 36.53%
- HEMOGLOBIN [1]: 13.67 G/DL
- LEUKOCYTE COUNT [1]: 12.1 x10E3/uL
- LYMPHOCYTE [1]: 90%
- MEAN CORPUSCULAR HEMOGLOBIN [1]: 23.87 pg
- MEAN CORPUSCULAR HEMOGLOBIN CONCENTRATION [1]: 37.43 G/DL
- MEAN CORPUSCULAR VOLUME [1]: 63.7 fL
- MONOCYTE [1]: 0%
- NEUTROPHIL [1]: 8.33%
- NUCLEATED RED BLOOD CELLS [1]: 0 /100WBC
- PLATELET COUNT [1]: 1159.33 x10E3/uL
- ALANINE AMINOTRANSFERASE [1]: 45.67 u/L
- ALBUMIN [1]: 4.33 G/DL
- ALKALINE PHOSPHATASE [1]: 362 u/L
- ASPARTATE AMINOTRANSFERASE [1]: 76.33 u/L
- BLOOD UREA NITROGEN [1]: 15.33 mg/dL
- CARBON DIOXIDE [1]: 25.67 mmol/L
- CHLORIDE [1]: 102 MEQ/L
- CHOLESTEROL [1]: 70.33 mg/dL
- CREATINE PHOSPHOKINASE [1]: 180.67 u/L
- CREATININE [1]: 0.2 mg/dL
- GLUCOSE [1]: 163.67 mg/dL
- LACTATE DEHYDROGENASE [1]: 162.67 u/L
- LIPASE [1]: 9 u/L
- PHOSPHORUS [1]: 11.63 mg/dL
- POTASSIUM [1]: 6.21 MEQ/L
- SODIUM [1]: 144 MEQ/L
- TOTAL BILIRUBIN [1]: 0.2 mg/dL
- TOTAL PROTEIN [1]: 6.1 G/DL
- URIC ACID [1]: 1.83 mg/dL
- ABSOLUTE BASOPHIL [2]: 0 CELLS/uL
- ABSOLUTE EOSINOPHIL [2]: 183 CELLS/uL
- ABSOLUTE LYMPHOCYTE [2]: 12835.33 CELLS/uL
- ABSOLUTE MONOCYTE [2]: 38 CELLS/uL
- ABSOLUTE SEGMENTED NEUTROPHIL [2]: 1443.67 CELLS/uL
- BASOPHIL [2]: 0%
- EOSINOPHIL [2]: 1.33%
- ERYTHROCYTE COUNT [2]: 5.49 x10E6/uL
- HEMATOCRIT [2]: 34.77%
- HEMOGLOBIN [2]: 13.37 G/DL
- LEUKOCYTE COUNT [2]: 14.5 x10E3/uL
- LYMPHOCYTE [2]: 88.33%
- MEAN CORPUSCULAR HEMOGLOBIN [2]: 24.37 pg
- MEAN CORPUSCULAR HEMOGLOBIN CONCENTRATION [2]: 38.47 G/DL
- MEAN CORPUSCULAR VOLUME [2]: 63.33 fL
- MONOCYTE [2]: 0.33%
- NEUTROPHIL [2]: 10%
- NUCLEATED RED BLOOD CELLS [2]: 0 /100WBC
- PLATELET COUNT [2]: 1374.67 x10E3/uL
- ALANINE AMINOTRANSFERASE [2]: 49.33 u/L
- ALBUMIN [2]: 4.2 G/DL
- ALKALINE PHOSPHATASE [2]: 412 u/L
- ASPARTATE AMINOTRANSFERASE [2]: 77.33 u/L
- BLOOD UREA NITROGEN [2]: 14.67 mg/dL
- CARBON DIOXIDE [2]: 27.33 mmol/L
- CHLORIDE [2]: 100 MEQ/L
- CHOLESTEROL [2]: 65.67 mg/dL
- CREATINE PHOSPHOKINASE [2]: 249.33 u/L
- CREATININE [2]: 0.19 mg/dL
- GLUCOSE [2]: 153.67 mg/dL
- LACTATE DEHYDROGENASE [2]: 144 u/L
- LIPASE [2]: 9 u/L
- PHOSPHORUS [2]: 12.87 mg/dL
- POTASSIUM [2]: 7.14 MEQ/L
- SODIUM [2]: 143.67 MEQ/L
- TOTAL BILIRUBIN [2]: 0.17 mg/dL
- TOTAL PROTEIN [2]: 5.83 G/DL
- URIC ACID [2]: 1.67 mg/dL
- ABSOLUTE BASOPHIL [3]: 0 CELLS/uL
- ABSOLUTE EOSINOPHIL [3]: 76.67 CELLS/uL
- ABSOLUTE LYMPHOCYTE [3]: 11157.33 CELLS/uL
- ABSOLUTE MONOCYTE [3]: 39 CELLS/uL
- ABSOLUTE SEGMENTED NEUTROPHIL [3]: 1027 CELLS/uL
- BASOPHIL [3]: 0%
- EOSINOPHIL [3]: 0.67%
- ERYTHROCYTE COUNT [3]: 5.53 x10E6/uL
- HEMATOCRIT [3]: 34.87%
- HEMOGLOBIN [3]: 13.07 G/DL
- LEUKOCYTE COUNT [3]: 12.3 x10E3/uL
- LYMPHOCYTE [3]: 90.67%
- MEAN CORPUSCULAR HEMOGLOBIN [3]: 23.63 pg
- MEAN CORPUSCULAR HEMOGLOBIN CONCENTRATION [3]: 37.5 G/DL
- MEAN CORPUSCULAR VOLUME [3]: 63.03 fL
- MONOCYTE [3]: 0.33%
- NEUTROPHIL [3]: 8.33%
- NUCLEATED RED BLOOD CELLS [3]: 0 /100WBC
- PLATELET COUNT [3]: 1307 x10E3/uL
- ALANINE AMINOTRANSFERASE [3]: 47.67 u/L
- ALBUMIN [3]: 4.33 G/DL
- ALKALINE PHOSPHATASE [3]: 423.67 u/L
- ASPARTATE AMINOTRANSFERASE [3]: 74 u/L
- BLOOD UREA NITROGEN [3]: 15.33 mg/dL
- CARBON DIOXIDE [3]: 26.33 mmol/L
- CHLORIDE [3]: 102.33 MEQ/L
- CHOLESTEROL [3]: 63 mg/dL
- CREATINE PHOSPHOKINASE [3]: 227.67 u/L
- CREATININE [3]: 0.2 mg/dL
- GLUCOSE [3]: 158.67 mg/dL
- LACTATE DEHYDROGENASE [3]: 174.33 u/L
- LIPASE [3]: 8.33 u/L
- PHOSPHORUS [3]: 12.1 mg/dL
- POTASSIUM [3]: 6.79 MEQ/L
- SODIUM [3]: 145.27 MEQ/L
- TOTAL BILIRUBIN [3]: 0.2 mg/dL
- TOTAL PROTEIN [3]: 6.13 G/DL
- URIC ACID [3]: 1.63 mg/dL
